Test systems include UO-31; HCC 2998; T47D; Hs-578T; MDA-MB-231; RPMI-8226; U-251; MOLT-4; HCT-15; UACC-257; SF-539; DU-145; MDA-MB-435; MDA-N; HCT-116; LOX IMVI; SK-MEL-2; Malme-3M; OVCAR-4.
Assay in all cases: NCI-60 cell line screen, 48 h

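Cultured in 96-well plates, cells were exposed to test compound for 48 hours across five concentrations. GI50 = concentration required for 50% inhibition of growth.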 Activity calls are given as the source filed them. Rule as the data show it: active = GI50 up to about 1.1 µM and inactive = higher.

With `O=C(CCc1cc(O)cc(O)c1)NCCc1cc(O)cc(OCc2ccccc2)c1`, the GI50 in the experiment with UO-31 is 22.2 µM (inactive); in the experiment on HCC 2998, 20.5 µM (inactive); in the experiment on T47D, 34 µM (inactive); with Hs-578T, 32.1 µM (inactive); in the experiment on MDA-MB-231, 29.8 µM (inactive); with RPMI-8226 it was 35.8 µM (inactive). Besides, the GI50 is 41.8 µM (inactive) in the experiment on U-251; 28.9 µM (inactive) with MOLT-4; 68.9 µM in the experiment with HCT-15; 82.4 µM (inactive) in the experiment with UACC-257; 36.7 µM (inactive) in the experiment with SF-539; 33.1 µM (inactive) in the experiment with DU-145. The GI50 in the experiment with MDA-MB-435 is 36.2 µM (inactive); in the experiment on MDA-N, 27.5 µM (inactive); in the experiment with HCT-116, 35.7 µM (inactive); in the experiment with LOX IMVI, 33.7 µM (inactive); in the experiment on SK-MEL-2, 44.8 µM (inactive).
On to `COC(=O)NC1(NC(=O)OC)NC(=O)c2ccccc2N1`, for which the GI50 in the experiment with UO-31, with HCC 2998, with T47D, in the experiment on Hs-578T, with MDA-MB-231 and with MOLT-4 was > 100 µM (inactive) each time. Also, the GI50 in the experiment with HCT-15 is 63.5 µM; in the experiment on UACC-257, > 100 µM (inactive); with SF-539, > 100 µM (inactive); in the experiment with Malme-3M it was > 100 µM (inactive); with DU-145, > 100 µM (inactive); in the experiment with OVCAR-4, > 100 µM (inactive). Further, the GI50 with MDA-N is 64.1 µM (inactive); in the experiment with HCT-116, > 100 µM (inactive); with SK-MEL-2, 0.0145 µM (active).
Turning to `CCOC(=O)c1ccc2nc3n(c2c1)C(c1c(F)cccc1F)SC3` (stereo not given), the GI50 in the experiment on UO-31, in the experiment with HCC 2998, in the experiment on T47D, in the experiment on Hs-578T, in the experiment on MDA-MB-231 and in the experiment with RPMI-8226 was > 100 µM (inactive) throughout. Moreover, the GI50 with U-251 is > 100 µM (inactive); in the experiment on MOLT-4, > 100 µM (inactive); in the experiment with HCT-15 it was above 100 µM; in the experiment with UACC-257, > 100 µM (inactive); with SF-539 it was > 100 µM (inactive); with DU-145, > 100 µM (inactive). Further, the GI50 in the experiment on OVCAR-4 was > 100 µM (inactive); in the experiment with MDA-MB-435 it was > 100 µM (inactive); in the experiment with MDA-N it was > 100 µM (inactive); in the experiment with HCT-116 it was 50.4 µM (inactive); with LOX IMVI, > 100 µM (inactive); in the experiment on SK-MEL-2, > 100 µM (inactive).
Turning to `CNC(=O)N(C)C(=O)c1ccccc1C(=O)N(C)C(=O)NC`, the GI50 in the experiment on UO-31, in the experiment with HCC 2998, in the experiment on T47D, in the experiment with Hs-578T, with MDA-MB-231 and in the experiment with RPMI-8226 was > 10 µM (inactive) throughout. The GI50 in the experiment with U-251 is > 10 µM (inactive); in the experiment on MOLT-4 it was > 10 µM (inactive); with HCT-15, above 10 µM; with UACC-257, > 10 µM (inactive); in the experiment with SF-539, > 10 µM (inactive); with Malme-3M, > 10 µM (inactive). The GI50 in the experiment on DU-145, in the experiment with OVCAR-4, in the experiment with MDA-N, in the experiment on HCT-116, in the experiment with LOX IMVI and in the experiment on SK-MEL-2 was > 10 µM (inactive) throughout.
Regarding `Cn1c(-c2ccc(-c3cc(-c4cccs4)c(-c4cccs4)n3C)cc2)cc(-c2cccs2)c1-c1cccs1`, the GI50 in the experiment with UO-31, in the experiment on HCC 2998, with T47D, in the experiment on Hs-578T, with MDA-MB-231 and with RPMI-8226 was > 100 µM (inactive) in each case. Besides, the GI50 is > 100 µM (inactive) with U-251; > 100 µM (inactive) with MOLT-4; above 100 µM in the experiment on HCT-15; > 100 µM (inactive) in the experiment on UACC-257; > 100 µM (inactive) in the experiment on SF-539; > 100 µM (inactive) in the experiment with DU-145. The GI50 with OVCAR-4, with MDA-MB-435, with MDA-N, in the experiment on HCT-116 and with SK-MEL-2 was > 100 µM (inactive) each time.
In the case of `CCOC(=O)c1[nH]cc(C)c1-c1ccc2c(-c3ccccc3)nc3ccccc3n12`, the GI50 in the experiment with UO-31 is 3.86 µM (inactive); with HCC 2998, 2.26 µM (inactive); with T47D, 4.43 µM (inactive); in the experiment with Hs-578T it was 2 µM (inactive); in the experiment on MDA-MB-231, 3.13 µM (inactive); in the experiment on U-251, 3.01 µM (inactive). The GI50 in the experiment on MOLT-4 is 2.31 µM (inactive); in the experiment on HCT-15, 3.55 µM; in the experiment with UACC-257 it was 5.3 µM (inactive); in the experiment with SF-539, 3.12 µM (inactive); in the experiment with DU-145, 3.8 µM (inactive); with OVCAR-4, 3.85 µM (inactive). The GI50 is 2.23 µM (inactive) with MDA-MB-435; 2.66 µM (inactive) in the experiment on MDA-N; 3.19 µM (inactive) with HCT-116; 3.44 µM (inactive) with LOX IMVI; 4.29 µM (inactive) in the experiment on SK-MEL-2.
With `CCCOC(=O)c1cc(C(=CCC[C@H]2CC[C@@]3(C)[C@@H](CC[C@@H]4[C@@H]3CC[C@]3(C)[C@@H](C(C)CCCC(C)C)CC[C@@H]43)C2)c2cc(Cl)c(O)c(C(=O)OCCC)c2)cc(Cl)c1O` (stereo not given in full), the GI50 in the experiment with HCC 2998, in the experiment on T47D, in the experiment on Hs-578T, in the experiment on MDA-MB-231, in the experiment with RPMI-8226 and in the experiment with U-251 was > 50 µM (inactive) each time. Moreover, the GI50 with MOLT-4 is > 50 µM (inactive); in the experiment on HCT-15 it was above 50 µM; with DU-145 it was > 50 µM (inactive); with OVCAR-4 it was > 50 µM (inactive); with MDA-MB-435 it was > 50 µM (inactive); in the experiment on MDA-N, > 50 µM (inactive). Besides, the GI50 with HCT-116, with LOX IMVI and in the experiment with SK-MEL-2 was > 50 µM (inactive) each time.
For `Clc1sc(Cl)c2c1[C@@H](Cl)C[C@@H]2Cl`, the GI50 was 76 µM (inactive) in the experiment on UO-31; 63.4 µM (inactive) in the experiment on HCC 2998; 45.4 µM (inactive) with T47D; 38.1 µM (inactive) in the experiment with Hs-578T; > 100 µM (inactive) in the experiment on MDA-MB-231; > 100 µM (inactive) with U-251. The GI50 in the experiment on MOLT-4 is 46.6 µM (inactive); with HCT-15, above 100 µM; in the experiment on UACC-257, > 100 µM (inactive); in the experiment on SF-539 it was > 100 µM (inactive); with Malme-3M it was 29.7 µM (inactive); with DU-145, > 100 µM (inactive). Moreover, the GI50 with OVCAR-4 is 74.3 µM (inactive); in the experiment with MDA-MB-435 it was 92 µM (inactive); in the experiment on MDA-N, > 100 µM (inactive); with HCT-116, 53.5 µM (inactive); in the experiment on LOX IMVI, 49.4 µM (inactive); in the experiment on SK-MEL-2, > 100 µM (inactive).
For `CC(=O)N1c2ccccc2Sc2cc(C(O)(C(F)(F)F)C(F)(F)F)ccc21`, the GI50 in the experiment with UO-31 is > 10 µM (inactive); in the experiment with HCC 2998 it was > 10 µM (inactive); in the experiment with T47D it was 9.86 µM (inactive); in the experiment with Hs-578T, > 10 µM (inactive); in the experiment with MDA-MB-231, > 10 µM (inactive); in the experiment on U-251 it was > 10 µM (inactive). Besides, the GI50 in the experiment with MOLT-4 is > 10 µM (inactive); in the experiment with HCT-15, above 10 µM; with UACC-257, > 10 µM (inactive); in the experiment with SF-539, > 10 µM (inactive); in the experiment on Malme-3M, > 10 µM (inactive); in the experiment on DU-145, > 10 µM (inactive). Also, the GI50 in the experiment with OVCAR-4, in the experiment on MDA-MB-435, in the experiment on MDA-N, in the experiment with HCT-116, in the experiment with LOX IMVI and with SK-MEL-2 was > 10 µM (inactive) in each case.
Take `CO/C(=N\N=C\c1ccc(OC)c(OC)c1)c1ccncc1`: the GI50 with UO-31 is 9.55 µM (inactive); in the experiment on HCC 2998, > 10 µM (inactive); in the experiment on T47D it was > 10 µM (inactive); in the experiment on Hs-578T, > 10 µM (inactive); in the experiment on MDA-MB-231, > 10 µM (inactive); in the experiment with RPMI-8226, > 10 µM (inactive). The GI50 with U-251 was > 10 µM (inactive); in the experiment on MOLT-4, > 10 µM (inactive); with HCT-15, above 10 µM; in the experiment on UACC-257 it was > 10 µM (inactive); in the experiment on SF-539, > 10 µM (inactive); with Malme-3M, > 10 µM (inactive). Also, the GI50 in the experiment on DU-145, with OVCAR-4, in the experiment on MDA-N and in the experiment with LOX IMVI was > 10 µM (inactive) throughout.
Turning to `O=C(CCCn1ccnc1[N+](=O)[O-])NCCn1cnc([N+](=O)[O-])c1`, the GI50 in the experiment on UO-31, with HCC 2998, with T47D, with Hs-578T, with RPMI-8226 and with U-251 was > 100 µM (inactive) throughout. For the same compound, the GI50 in the experiment on MOLT-4 was > 100 µM (inactive); in the experiment with HCT-15, above 100 µM; in the experiment on UACC-257, > 100 µM (inactive); with SF-539 it was > 100 µM (inactive); with Malme-3M, > 100 µM (inactive); with DU-145, > 100 µM (inactive). The GI50 in the experiment with OVCAR-4, in the experiment on MDA-MB-435, in the experiment with MDA-N, in the experiment with HCT-116, in the experiment with LOX IMVI and with SK-MEL-2 was > 100 µM (inactive) each time.
`O=C(O)c1ccc(NNc2cc(=O)[nH]c(=O)[nH]2)cc1`: the GI50 in the experiment on UO-31, with HCC 2998, in the experiment with T47D, in the experiment with Hs-578T, in the experiment on MDA-MB-231 and in the experiment with RPMI-8226 was > 100 µM (inactive) in each case. For the same compound, the GI50 in the experiment with U-251 was > 100 µM (inactive); with MOLT-4 it was > 100 µM (inactive); in the experiment on HCT-15, above 100 µM; in the experiment with UACC-257, > 100 µM (inactive); in the experiment on SF-539, > 100 µM (inactive); in the experiment with Malme-3M, > 100 µM (inactive). For the same compound, the GI50 in the experiment with DU-145, in the experiment on OVCAR-4, in the experiment with MDA-N, in the experiment with HCT-116, in the experiment with LOX IMVI and in the experiment on SK-MEL-2 was > 100 µM (inactive) each time.

The values above are taken from ChEMBL document CHEMBL1201862, “PubChem BioAssay data set” (2004).
